5 compounds from ChEMBL document CHEMBL3593238, “Selenorhodamine photosensitizers with the Texas-red core for photodynamic therapy of cancer cells” (Bioorg Med Chem, 2015) can be followed below.

The test system of data set [1] is Colon 26. As to the kind of experiment: Drug uptake in mouse Colon 26 cells expressing p-glycoprotein at 2 x 10^-7 M after 15 mins by flow cytometry in presence of 1 x 10^-4 M of verapamil. It counts as ADME, cell-based. As to conditions: colon 26, 0.25 h, 0.2 µM.
Data set [2] in a line: Dark toxicity in mouse Colon 26 cells expressing p-glycoprotein assessed as cell viability incubated for 1 hr followed by incubated for 48 hrs in fresh medium by sulforhodamine B assay. Type of data set: cell-based. The settings on record: read-out: LD50. For orientation: The SRB assay estimates cell density from bound dye.
Data set [3] in a line: Ratio of LD50 for dark toxicity in mouse Colon 26 cells to EC50 for photo-toxicity in mouse Colon 26 cells at 1 Jcm'-2 of continuous illumination with 630 +/- 2 nm laser light. As to conditions: read-out: Ratio LD50/EC50. It counts as cell-based.
Data set [4] is described as follows: Cellular uptake in mitochondria of mouse Colon 26 cells expressing p-glycoprotein using MitoTracker Green after 15 mins by flow cytometry. Type of data set: ADME. The settings on record: colon 26, 0.25 h. (In general: In flow cytometry, cells or beads pass a laser one at a time.)
Data set [5] relates to Colon 26. As to the kind of experiment: Drug uptake in mouse Colon 26 cells expressing p-glycoprotein at 2 x 10^-7 M after 15 mins by flow cytometry in absence of verapamil. It counts as ADME, cell-based. The settings on record: colon 26, 0.25 h, 0.2 µM.
The subject of data set [6] is Colon 26. As to the kind of experiment: Photo-toxicity in mouse Colon 26 cells assessed as cell viability at 1 Jcm'-2 of continuous illumination with 630 +/- 2 nm laser light incubated for 48 hrs by sulforhodamine B assay. It counts as functional, cell-based. As to conditions: for EC50: Colon 26, 48 h.
In data set [7] the test system is Colon 26. As to the kind of experiment: Photo-toxicity in mouse Colon 26 cells assessed as cell viability at 0.5 Jcm'-2 of continuous illumination with 630 +/- 2 nm laser light incubated for 48 hrs by sulforhodamine B assay. As to conditions: for EC50: Colon 26, 48 h. It counts as functional, cell-based.
A short description of data set [8]: n-Octanol-water partition coefficient, log P of the compound at pH 7.4 by shake flask method. Type of data set: physicochemical.
Data set [9] has as its system Colon 26. As to the kind of experiment: Photo-toxicity in mouse Colon 26 cells assessed as cell viability up to 5 Jcm'-2 of continuous illumination with 630 +/- 2 nm laser light incubated for 48 hrs by sulforhodamine B assay. Type of data set: functional, cell-based. As to conditions: Colon 26, 48 h.
Data set [10] is described as follows: Ratio of LD50 for dark toxicity in mouse Colon 26 cells to EC50 for photo-toxicity in mouse Colon 26 cells at 15 Jcm'-2 of continuous illumination with 630 +/- 2 nm laser light. Type of data set: cell-based. The settings on record: read-out: Ratio LD50/EC50.

Active and inactive are the calls of the source. The rule behind the calls is not given here.

Usually EC50 stands for the concentration needed to bring the measured effect to its halfway point. A word on the logD: it is the decadic logarithm of the distribution of all forms, ionised or not, between an organic phase and buffer at a given pH. Turning to `O=C(c1ccc(C2=c3cc4c5c(c3[Se]c3c2cc2c6c3CCCN6CCC2)CCC[N+]=5CCC4)s1)N1CCCCC1.[Cl-]`, the “fold change (FC)” value in the data set on Colon 26 [1] was 7.6. Further, the CC50 at 1 h in data set [2] amounted to 2240 nM. The selectivity ratio in data set [3] is 58. For the same compound, the Drug uptake result (in data set [4]; in the data set with Colon 26 [5]) was “Active” in each case. The EC50 in the data set on Colon 26 [6] is 38.8 nM; with Colon 26 [7], 79 nM; in the data set on Colon 26 [9], 50 nM. Besides, the log distribution coefficient (logD) in data set [8] came out at 3.71.
`CN(C)c1ccc(-c2cc(-c3ccc(N)cc3)[se+]c(-c3ccc(N)cc3)c2)cc1`: the selectivity ratio in [10] is 3.8.
On to `CN(C)c1ccc(-c2cc(-c3ccccc3)[se+]c(-c3ccc(N)cc3)c2)cc1`, for which the CC50 at 1 h in data set [2] came to 2600 nM. For the same compound, the selectivity ratio in data set [10] was found to be 13.
As to `S=C(c1ccc(C2=c3cc4c5c(c3[Se]c3c2cc2c6c3CCCN6CCC2)CCC[N+]=5CCC4)s1)N1CCCCC1.[Cl-]`, the “fold change (FC)” value in the data set with Colon 26 [1] was 2.9. The CC50 at 1 h in data set [2] turned out to be 1530 nM. In addition, the selectivity ratio in data set [3] turned out to be 53. The Drug uptake entry (in [4]; in the data set with Colon 26 [5]) was “Active” throughout. Moreover, the EC50 is 29 nM with Colon 26 [6], 56 nM with Colon 26 [7] and 50 nM with Colon 26 [9]. The same compound returned a logD in [8] of 4.1.
For `CN(C)c1ccc(-c2cc(-c3ccccc3)[s+]c(-c3ccc(N)cc3)c2)cc1`, the CC50 at 1 h in data set [2] is 70 nM. Moreover, the outcome in the data set with Colon 26 [6] and in the data set on Colon 26 [7] was inactive.
